Experimental data taken from ChEMBL document CHEMBL3507680, “University of Dundee, Gates Library screen for HepG2 cell viability”.

assay: Human HepG2 cell viability assay in 384 well format; assay type: toxicity, cell-based; parameters: dose 125 nL, time 70.5 hour; cytotoxicity at 70.5 h: concentration not given beside the values; conditions: HepG2 cells, read-out: Inhibition

| Compound | cytotoxicity at 70.5 h [%] |
| --- | --- |
| Cc1cc(CN2CCN(C(=O)c3sccc3C3CC3)CC2)on1 | -13.6 |
| Cc1ccc(S(C)(=O)=O)cc1C(=O)NS(=O)(=O)c1ccc(Cl)cc1 | -4.48 |
| CCn1cnnc1CCNC(=O)c1ccc(Br)cc1F | -4.19 |
| COc1ccc(-c2nnc(SC(C)C(N)=O)[nH]2)c(OC)c1 (stereo not given) | -8.05 |
| Cn1cccc1C(=O)N1C[C@@H]2C[C@@H](c3nnc(C4CC4)o3)O[C@@H]2C1 | -3.51 |
| CC(=O)N1CC(C)CN(C(=O)c2cscn2)c2ccccc21 (stereo not given) | 2.08 |
| c1ccc(CN2CCC3(CC2)CCN(c2ccccn2)C3)nc1 | -10.3 |
| Cc1nc(CN2CCO[C@@H]3CN(Cc4cccs4)C[C@@H]3C2)cs1 | -4.54 |
| COCc1noc(-c2ccc(N3CCCC3c3ccc(F)cc3)nc2)n1 (stereo not given) | -3.49 |
| Fc1ccc(CN2CCc3ncnc(C4CCOC4)c3CC2)cc1 (stereo not given) | -5.46 |
| CCCC1c2cccn2CCN1C(=O)c1cc(CC)no1 (stereo not given) | -2.22 |
| Cc1ccccc1NCc1nc2n(n1)CCCCC2 | 0.338 |
| CC1(C(=O)N2CCC(n3cc(C4(O)CCCC4)nn3)CC2)CCCCC1 | -9.72 |
| COC(=O)N1CC2=CC(C)(C)COc3ccc(OC)c(c32)C1 | 1.21 |
| NCC(c1cccnc1)N1CCOCC1 (stereo not given) | -4.26 |
| CC(C)N1Cc2cccc(NCC(=O)N(C)C3CCCCC3)c2C1 | -0.0699 |
| COc1ncccc1C(=O)N1CCc2c(ncnc2N2CCOCC2)C1 | -3.85 |
| Cc1oncc1C(=O)N1CCC2(CCN(Cc3ccccn3)C2=O)C1 (stereo not given) | -0.113 |
| CC1CC(=O)c2cnc3nc(N4CCOCC4)[nH]c(=O)c3c2C1 (stereo not given) | -15.8 |
| CS(=O)(=O)N1CCC2(CC1)CC(Oc1ccccn1)CO2 (stereo not given) | -3.34 |
| CCC[C@H]1CN(c2nc(CO)cs2)C[C@@H]1NC(=O)C1(COC)CC1 | 4.28 |
| COc1cccc(CSc2nnc(C)n2CC(N)=O)c1 | -98.4 |
| CC(=O)N1CCC(Oc2ccc(C#N)cn2)CC1 | -3.09 |
| O=C(NC1CC1)c1ccnc(N2CCOC(c3ccc(Cl)c(Cl)c3)C2)c1 (stereo not given) | 9.19 |
| CC(C)C1CN(c2ncccn2)CCC(=O)N1CC1CC1 (stereo not given) | 36.1 |
| O=C(CCc1ccsc1)N1CCC(N2CCNC2=O)CC1 | 3.98 |
| CNC(=O)c1n[nH]c2c1C(c1cccc3nsnc13)CC(=O)N2 (stereo not given) | -3.59 |
| CCOCC(=O)N1C[C@@H]2CCN(c3cnccn3)C[C@@H]2C1 | -3.75 |

| Compound | cytotoxicity at 70.5 h [%] |
| --- | --- |
| COc1ccc(-c2ncccc2C(=O)N2C[C@H]3CC[C@@H]2C3)cn1 | -2.51 |
| CN(CCCO)Cc1cc(Cl)ccc1OCC(O)CN1CCCCCC1 (stereo not given) | -7.24 |
| Cc1c(NC(=O)N(C)CCO)cccc1OC1CCCC1 | -7.3 |
| Cn1cc(NC(=O)c2cccc3cccnc23)ccc1=O | -18.3 |
| CC(=O)N1CCC2(CC1)[C@@H]1CN(C(=O)N(C)C)C[C@@H]1C(=O)N2C | -7.5 |
| O=C1CC(C2CCCCC2)c2c(n(C3CCCC3)[nH]c2=O)N1 (stereo not given) | 2.99 |
| O=C(CN1CCCC1Cn1cncn1)NCCC1=CCCCC1 (stereo not given) | 1.2 |
| CN(C)S(=O)(=O)N1C[C@@H]2CC[C@H](C1)N(Cc1ccc3c(c1)OCCO3)C2 | -3.43 |
| O=C(c1cnc(-c2cccs2)s1)N1CCCC(n2cccn2)C1 (stereo not given) | -4.26 |
| COc1ccc(CN2Cc3cn(C)nc3C(COCC3CC3)C2)cc1 (stereo not given) | -4.4 |
| CCc1cc(CNC(=O)C2CCC(=O)N(Cc3ccccc3F)C2)on1 (stereo not given) | -9.72 |
| COc1cccc(CNCc2c(C)nn(C)c2N(C)C)c1 | 0.816 |
| CN1CCC(CNC(=O)Cc2ccc(N(C)C)cc2)CC1 | -6.81 |
| OC(COCc1ccccc1F)CN1CCc2c(ncn2C2CC2)C1 (stereo not given) | -2.37 |
| CCS(=O)(=O)CC(=O)Nc1ccccc1N1CCc2ccccc21 | -13.2 |
| CC(CNC(=O)Nc1cn[nH]c1)N1CCCC1 (stereo not given) | 2.24 |
| O=C(NCC(O)c1cccc(F)c1)C1CCN(C2CCCCC2)CC1 (stereo not given) | -16.4 |
| COCc1cncc2c1CCN(Cc1ccccn1)C2 | -0.455 |
| CCOC(C)c1noc(CN2CCN(c3ccncc3)CC2)n1 (stereo not given) | -6.31 |
| Nc1nc(C2CCN(C(=O)c3cscn3)CC2)cs1 | -18.4 |
| CC1CCN(S(=O)(=O)NCc2ccccc2Cn2cccn2)CC1 | 14.5 |
| CN1CCCN(S(=O)(=O)c2cnn(C)c2)c2cc(Cl)ccc21 | -3.72 |
| Cc1cc(CN2C[C@@H]3CCCO[C@@H]3[C@H](NS(C)(=O)=O)C2)no1 | -1.78 |
| COc1ccc(C(=O)N2CC(=O)N(Cc3cccs3)CC(O)C2)cc1 (stereo not given) | -2.23 |
| CC(C)c1nnc2n1CCN(C(=O)c1ccccc1OCC1CC1)C2 | -4.61 |
| F[C@@H]1CN(Cc2cccnc2)C[C@@H]1OCc1nc2ccccc2[nH]1 | -3.79 |
| CCOCC1CN(C(=O)c2ccncc2)Cc2nn(C)cc21 (stereo not given) | -18 |
